Columns and labels:
[1] = target: full-length human HPK1 (MAP4K1) (Homo sapiens (Human), UniProt Q92918); assay: HPK1 Kinase Assay (Biochemical Assay), ADP-Glo; settings: GST-HPK1 3.2 nM, 10 μM ATP, MBP substrate, read-out: HPK1 enzymatic IC50
Method in brief: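 ADP-Glo luminescence after a 120-min kinase reaction gave percent inhibition and IC50. The enzyme was Sf21-expressed N-terminal GST full-length human HPK1 at 3.2 nM in HEPES pH 7.5 buffer with MgCl2, DTT, Brij-35 and BSA.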

[2] = target: HPK1 (SLP76 phosphorylation at Ser376 in Jurkat and EL-4 cells) (Homo sapiens, UniProt Q92918); format: cell-based; settings: αCD3/αCD28 Dynabeads stimulated cells, pSLP76 (Ser376) detection; read-out: HPK1 pSLP76 IC50
Method in brief: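 Phospho-SLP76 (Ser376) in lysates measured by AlphaLISA for human Jurkat and by 19 h HTRF for mouse EL-4, giving % inhibition and IC50. Compounds applied 60 min before αCD3/αCD28 bead stimulation at 37 °C, lasting 15 min (Jurkat) or 30 min (EL-4).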

full-length human HPK1 (MAP4K1), sequence (Q92918 whole entry): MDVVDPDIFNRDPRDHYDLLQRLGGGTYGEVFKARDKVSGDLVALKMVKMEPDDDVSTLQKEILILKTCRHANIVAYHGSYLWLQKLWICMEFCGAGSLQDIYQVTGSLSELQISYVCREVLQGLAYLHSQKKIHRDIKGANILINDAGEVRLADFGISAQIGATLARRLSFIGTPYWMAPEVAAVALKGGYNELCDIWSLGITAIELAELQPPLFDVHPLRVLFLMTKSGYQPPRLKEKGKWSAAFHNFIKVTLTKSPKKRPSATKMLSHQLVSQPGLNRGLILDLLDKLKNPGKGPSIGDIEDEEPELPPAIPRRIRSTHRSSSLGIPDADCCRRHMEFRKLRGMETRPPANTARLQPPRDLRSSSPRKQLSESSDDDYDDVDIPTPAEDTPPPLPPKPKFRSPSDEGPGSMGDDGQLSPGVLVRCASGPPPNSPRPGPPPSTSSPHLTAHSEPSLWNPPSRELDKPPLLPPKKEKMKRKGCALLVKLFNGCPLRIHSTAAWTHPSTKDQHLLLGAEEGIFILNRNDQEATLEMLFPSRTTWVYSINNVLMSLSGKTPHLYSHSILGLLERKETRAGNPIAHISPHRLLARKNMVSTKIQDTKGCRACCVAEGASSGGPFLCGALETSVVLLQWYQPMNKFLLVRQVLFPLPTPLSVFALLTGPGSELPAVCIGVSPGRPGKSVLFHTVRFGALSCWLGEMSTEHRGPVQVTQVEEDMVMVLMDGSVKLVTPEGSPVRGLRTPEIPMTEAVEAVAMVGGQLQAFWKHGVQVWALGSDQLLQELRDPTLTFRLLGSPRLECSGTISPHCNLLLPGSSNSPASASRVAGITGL
HPK1 (SLP76 phosphorylation at Ser376 in Jurkat and EL-4 cells), sequence (Q92918 whole entry, looked up): as the sequence (Q92918 whole entry) above

Compound	IC50 [1] [nM]	IC50 [2] [nM]
Cc1c(N2CCc3cnc(Nc4ccc(CO)cc4)nc3C2)cnc2c1NCCO2 [Example 133, {4-[(7-{8-methyl-1H,2H,3H-pyrido[2,3-b][1,4]oxazin-7-yl}-5H,6H,7H,8H-pyrido[3,4-d]pyrimidin-2-yl)amino]phenyl}methanol]	< 100	< 500
Cc1cc(Nc2ncc3c(n2)CN(c2cnc4c(c2C)NCCO4)CC3)ccc1N(C)CCN1CCOCC1 [Example 17, N1,2-dimethyl-N4-(7-{8-methyl-1H,2H,3H-pyrido[2,3-b][1,4]oxazin-7-yl}-5H,6H,7H,8H-pyrido[3,4-d]pyrimidin-2-yl)-N1-[2-(morpholin-4-yl)ethyl]benzene-1,4-diamine; formic acid]	< 100	500 to 1000
COCCNC(=O)c1ccc(Nc2ncc3c(n2)CN(c2cnc4c(c2C)NCCO4)CC3)cc1 [Example 44, N-(2-methoxyethyl)-4-[(7-{8-methyl-1H,2H,3H-pyrido[2,3-b][1,4]oxazin-7-yl}-5H,6H,7H,8H-pyrido[3,4-d]pyrimidin-2-yl)amino]benzamide]	< 100	< 500
Cc1c(N2CCc3cnc(Nc4ccnc(N5CCN(C)CC5)c4)nc3C2)cnc2c1NCCO2 [Example 72, N-(7-{8-methyl-1H,2H,3H-pyrido[2,3-b][1,4]oxazin-7-yl}-5H,6H,7H,8H-pyrido[3,4-d]pyrimidin-2-yl)-2-(4-methylpiperazin-1-yl)pyridin-4-amine]	< 100	< 500

Second part, the compound after the results:

IC50 [1] [nM]	IC50 [2] [nM]	Compound
< 100	500 to 1000	Cc1c(N2CCc3cnc(Nc4ccc5c(c4)CN(C)C5)cc3C2)cnc2c1NCCO2 [Example 47, 6-{8-methyl-1H,2H,3H-pyrido[2,3-b][1,4]oxazin-7-yl}-N-(2-methyl-2,3-dihydro-1H-isoindol-5-yl)-5,6,7,8-tetrahydro-2,6-naphthyridin-3-amine]
< 100	< 500	Cc1c(N2CCc3cnc(Nc4ccc(CCS(C)(=O)=O)cc4)nc3C2)cnc2c1NCCO2 [Example 161, N-[4-(2-methanesulfonylethyl)phenyl]-7-{8-methyl-1H,2H,3H-pyrido[2,3-b][1,4]oxazin-7-yl}-5H,6H,7H,8H-pyrido[3,4-d]pyrimidin-2-amine]
< 100	500 to 1000	CCc1cc(Nc2ncc3c(n2)CN(c2cnc4c(c2C)NCCO4)CC3)ccc1N1CCC(O)CC1 [Example 80, 1-(2-ethyl-4-((7-(8-methyl-2,3-dihydro-1H-pyrido[2,3-b][1,4]oxazin-7-yl)-5,6,7,8-tetrahydropyrido[3,4-d]pyrimidin-2-yl)amino)phenyl)piperidin-4-ol]

From patent publication US20240025922A1, “TETRAHYDROPYRIDO[3,4-d]PYRIMIDINES AS HPK1 INHIBITORS” (Merck Patent GmbH, priority 2022, published 2024)
